{"source": "patent US7803825B2", "about": "“Aminoalkylazole derivatives as histamine-3 antagonists” (Wyeth LLC, priority 2007, dated 2010)", "note": "Where a name gives a salt, the structure may show the parent alone.", "data": [{"biological_target": "T1, histamine-3 (H3) receptor (Homo sapiens, UniProt Q9Y5N1)", "T1 construct": "expressed in transfected cells; host or cells: HEK293T", "T1 sequence (Q9Y5N1 whole entry)": "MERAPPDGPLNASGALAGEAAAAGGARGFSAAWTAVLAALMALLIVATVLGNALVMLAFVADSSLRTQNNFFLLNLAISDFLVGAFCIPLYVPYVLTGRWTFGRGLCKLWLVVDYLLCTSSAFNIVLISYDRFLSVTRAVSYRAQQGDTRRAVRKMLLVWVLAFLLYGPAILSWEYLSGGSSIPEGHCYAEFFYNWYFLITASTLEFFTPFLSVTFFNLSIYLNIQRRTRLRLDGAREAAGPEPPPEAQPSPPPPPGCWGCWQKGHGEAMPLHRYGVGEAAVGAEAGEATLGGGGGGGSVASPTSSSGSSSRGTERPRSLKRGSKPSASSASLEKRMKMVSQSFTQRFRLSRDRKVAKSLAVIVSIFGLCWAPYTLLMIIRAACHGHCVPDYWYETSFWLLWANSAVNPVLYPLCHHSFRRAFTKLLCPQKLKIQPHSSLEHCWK", "test": "Methyl Histamine Binding in Human Histamine-3 Receptor Cell Line", "conditions": "membranes of stably transfected HEK293T cells, radioligand 1 nM, Ki from IC50 by Cheng-Prusoff", "description": "Evaluation of Methyl Histamine Binding in Human Histamine-3 Receptor Cell Line\nThe affinity of test compounds for the histamine-3 (H3) receptor is evaluated in the following manner. Stably transfected HEK293T cells are grown in DMEM containing 10% heat inactivated FBS and G-418 (500 ug/ml). Cells are scraped from the plate, transferred to centrifuge tubes, washed one time in PBS by centrifugation in a Sorvall RT7 Plus centrifuge (2000 rpm 10 minutes, 4° C.). The resulting pellets are stored at 80° C. until ready for use. Cells are re-suspended in buffer (50 mM Tris pH=7.5) and placed in a Dounce homogenizer, douncing ten times to homogenize cells. The homogenate is spun down by centrifugation (Sorvall RT7 Plus, 1800 rpm 10 minutes, 4° C.). The supernatant is placed in a Corex tube and spun down by centrifugation (Sorvall RC 5c Plus, 17,000 rpm 20 minutes, 4° C.). The pellet is resuspended in buffer (50 mM Tris, pH 7.5). Protein concentration (ug/ul) is determined using the Micro-BCA Protein Determination. The binding assay is set up in a 96 well microtiter plate in a total volume of 250 uL. Non-specific binding is determined in the presence of 10 uM clobenpropit. The final radioligand concentration is 1 nM. The test compound is serially diluted using the Beckman Biomek2000 to a final approximate range of 100 uM to 100 pM. Membranes are suspended in buffer, homogenized in 2 bursts of ten seconds using a Vitris mechanical homogenizer set at power setting 5. Ten μg of membranes are added to each well. Following a one hour incubation at 30° C., the reaction is terminated by the addition of ice cold buffer and rapid filtration with a Packard Filtermate Harvester through a GF/B filter pre-soaked with 1% PEI for one hour. The plate is dried for one hour at 37° C. and 60 μL Microscint Scintillant is added to each well. The CPM per well is measured on a Packard Top Count NXT. Ki values are determined in nM. The Ki is calculated from the IC50 (i.e. the concentration of competing ligand which displaces 50% of the specific binding of the radioligand). CPM values are expressed as % specific binding and plotted vs compound concentration. A curve is fitted using a four-parameter logistic fit and the IC50 value is determined. The Ki is calculated from this using the Cheng-Prusoff equation: […]=IC50/1+(L/Kd) where L=concentration of free radioligand used in the assay, and Kd is the dissociation constant of the radioligand for the receptor. L is determined for each experiment by counting an aliquot of the diluted radioligand (corresponding to that added to each well) and the Kd has previously been determined under identical conditions for this cell line/radioligand.", "units": {"Ki": "nM"}, "values": [{"smiles": "c1ccc2c(c1)nc(-c1ccc(-c3nc(CN4CCCC4)co3)cc1)n2CC1CCC1", "note": "[Example 58, 1-(cyclobutylmethyl)-2-{4-[4-(pyrrolidin-1-ylmethyl)-1,3-oxazol-2-yl]phenyl}-1H-benzimidazole]", "Ki": "10.1 to 25"}, {"smiles": "C[C@H]1CCCN1Cc1coc(-c2ccc(-c3nc4ccccc4n3CC3CCC3)cc2)n1", "note": "[Example 59, 1-(cyclobutylmethyl)-2-[4-(4-{[(2S)-2-methylpyrrolidin-1-yl]methyl}-1,3-oxazol-2-yl)phenyl]-1H-benzimidazole]", "Ki": "≤ 10"}, {"smiles": "c1ccc2c(c1)nc(-c1ccc(-c3nc(CN4CCCC4)co3)cc1)n2CCC1CCCCC1", "note": "[Example 60, 1-(2-cyclohexylethyl)-2-{4-[4-(pyrrolidin-1-ylmethyl)-1,3-oxazol-2-yl]phenyl}-1H-benzimidazole]", "Ki": "50.1 to 100"}, {"smiles": "C[C@H]1CCCN1Cc1coc(-c2ccc(-c3nc4ccccc4n3CCC3CCCCC3)cc2)n1", "note": "[Example 61]", "Ki": "25.1 to 50"}, {"smiles": "Cn1c(Cc2ccc(-c3nc(CN4CCCC4)co3)cc2)nc2ccccc21", "note": "[Example 67, 1-Methyl-2-{4-[4-(pyrrolidin-1-ylmethyl)-1,3-oxazol-2-yl]benzyl}-1H-benzimidazole Fumarate]", "Ki": "≤ 10"}, {"smiles": "c1ccc2c(c1)ncn2Cc1ccc(-c2nc(CN3CCCC3)cs2)cc1", "note": "[Example 71, 1-{4-[4-(Pyrrolidin-1-ylmethyl)-1,3-thiazol-2-yl]benzyl}-1H-benzimidazole Hydrochloride]", "Ki": "10.1 to 25"}, {"smiles": "CC1CCCN1Cc1csc(-c2ccc(Cn3cnc4ccccc43)cc2)n1", "note": "(centres unmarked) [Example 72, 1-(4-{4-[(2-methylpyrrolidin-1-yl)methyl]-1,3-thiazol-2-yl}benzyl)-1H-benzimidazole]", "Ki": "≤ 10"}, {"smiles": "c1ccc2c(c1)ncn2Cc1ccc(-c2nc(CN3CCCCC3)cs2)cc1", "note": "[Example 73, 1-{4-[4-(piperidin-1-ylmethyl)-1,3-thiazol-2-yl]benzyl}-1H-benzimidazole]", "Ki": "≤ 10"}, {"smiles": "c1ccc2c(c1)ncn2Cc1ccc(-c2nc(CN3CCCCCC3)cs2)cc1", "note": "[Example 74, 1-{4-[4-(azepan-1-ylmethyl)-1,3-thiazol-2-yl]benzyl}-1H-benzimidazole]", "Ki": "≤ 10"}, {"smiles": "c1ccc2c(c1)ccn2Cc1ccc(-c2nc(CN3CCCC3)co2)cc1", "note": "[Example 81, 1-{4-[4-(pyrrolidin-1-ylmethyl)-1,3-oxazol-2-yl]benzyl}-1H-indole Hydrochloride]", "Ki": "50.1 to 100"}, {"smiles": "c1ccc2c(c1)cnn2Cc1ccc(-c2nc(CN3CCCC3)co2)cc1", "note": "[Example 88, 1-{4-[4-(pyrrolidin-1-ylmethyl)-1,3-oxazol-2-yl]benzyl}-1H-indazole]", "Ki": "50.1 to 100"}, {"smiles": "C[C@@H]1CCCN1Cc1coc(-c2ccc(Cn3ncc4ccccc43)cc2)n1", "note": "[Example 94, 1-[4-(4-{[(2R)-2-methylpyrrolidin-1-yl]methyl}-1,3-oxazol-2-yl)benzyl]-1H-indazole]", "Ki": "50.1 to 100"}, {"smiles": "C[C@@H]1CCCN1Cc1coc(-c2ccc(Cn3ncc4cc(F)ccc43)cc2)n1", "note": "[Example 95, 5-fluoro-1-[4-(4-{[(2R)-2-methylpyrrolidin-1-yl]methyl}-1,3-oxazol-2-yl)benzyl]-1H-indazole]", "Ki": "50.1 to 100"}, {"smiles": "C[C@@H]1CCCN1Cc1coc(-c2ccc(Cn3ncc4ccc(F)cc43)cc2)n1", "note": "[Example 96, 6-fluoro-1-[4-(4-{[(2R)-2-methylpyrrolidin-1-yl]methyl}-1,3-oxazol-2-yl)benzyl]-1H-indazole]", "Ki": "50.1 to 100"}, {"smiles": "C[C@H]1CCCN1Cc1coc(-c2ccc(Cn3ncc4ccccc43)cc2)n1", "note": "[Example 97, 1-[4-(4-{[(2S)-2-methylpyrrolidin-1-yl]methyl}-1,3-oxazol-2-yl)benzyl]-1H-indazole]", "Ki": "≤ 10"}, {"smiles": "C[C@H]1CCCN1Cc1coc(-c2ccc(Cn3ncc4cc(F)ccc43)cc2)n1", "note": "[Example 98, 5-fluoro-1-[4-(4-{[(2S)-2-methylpyrrolidin-1-yl]methyl}-1,3-oxazol-2-yl)benzyl]-1H-indazole]", "Ki": "≤ 10"}, {"smiles": "C[C@H]1CCCN1Cc1coc(-c2ccc(Cn3ncc4ccc(F)cc43)cc2)n1", "note": "[Example 99, 6-fluoro-1-[4-(4-{[(2S)-2-methylpyrrolidin-1-yl]methyl}-1,3-oxazol-2-yl)benzyl]-1H-indazole]", "Ki": "10.1 to 25"}, {"smiles": "Fc1ccc2c(cnn2Cc2ccc(-c3nc(CN4CCCC4)co3)cc2)c1", "note": "[Example 100, 5-fluoro-1-{4-[4-(pyrrolidin-1-ylmethyl)-1,3-oxazol-2-yl]benzyl}-1H-indazole]", "Ki": "10.1 to 25"}, {"smiles": "Fc1ccc2cnn(Cc3ccc(-c4nc(CN5CCCC5)co4)cc3)c2c1", "note": "[Example 101, 6-fluoro-1-{4-[4-(pyrrolidin-1-ylmethyl)-1,3-oxazol-2-yl]benzyl}-1H-indazole]", "Ki": "25.1 to 50"}, {"smiles": "NCc1ccc2c(cnn2Cc2ccc(-c3nc(CN4CCCC4)co3)cc2)c1", "note": "[Example 102, 1-(1-{4-[4-(pyrrolidin-1-ylmethyl)-1,3-oxazol-2-yl]benzyl}-1H-indazol-5-yl)methanamine]", "Ki": "≤ 10"}, {"smiles": "c1ccc2c(c1)ncn2Cc1ccc(-c2ncc(CN3CCCC3)o2)cc1", "note": "[Example 104, 1-{4-[5-(pyrrolidin-1-ylmethyl)-1,3-oxazol-2-yl]benzyl}-1H-benzimidazole]", "Ki": "> 100"}, {"smiles": "CC1CCCN1Cc1cnc(-c2ccc(Cn3cnc4ccccc43)cc2)o1", "note": "(centres unmarked) [Example 105, 1-(4-{5-[(2-methylpyrrolidin-1-yl)methyl]-1,3-oxazol-2-yl}benzyl)-1H-benzimidazole]", "Ki": "≤ 10"}, {"smiles": "C[C@H]1CCCN1Cc1cnc(-c2ccc(Cn3cnc4ccccc43)cc2)o1", "note": "[Example 106, 1-[4-(5-{[(2S)-2-methylpyrrolidin-1-yl]methyl}-1,3-oxazol-2-yl)benzyl]-1H-benzimidazole]", "Ki": "≤ 10"}, {"smiles": "c1ccc2c(c1)ncn2Cc1ccc(-c2ncc(CN3CCCCC3)o2)cc1", "note": "[Example 107, 1-{4-[5-(piperidin-1-ylmethyl)-1,3-oxazol-2-yl]benzyl}-1H-benzimidazole]", "Ki": "> 100"}, {"smiles": "C[C@@H]1CCCN1Cc1cnc(-c2ccc(Cn3cnc4ccccc43)cc2)o1", "note": "[Example 108, 1-[4-(5-{[(2R)-2-methylpyrrolidin-1-yl]methyl}-1,3-oxazol-2-yl)benzyl]-1H-benzimidazole]", "Ki": "25.1 to 50"}, {"smiles": "CC1CCCN(Cc2cnc(-c3ccc(Cn4cnc5ccccc54)cc3)o2)C1", "note": "(centres unmarked) [Example 109, 1-(4-{5-[(3-methylpiperidin-1-yl)methyl]-1,3-oxazol-2-yl}benzyl)-1H-benzimidazole]", "Ki": "> 100"}, {"smiles": "CC1(C)CC2CC(C)(CN2Cc2cnc(-c3ccc(Cn4cnc5ccccc54)cc3)o2)C1", "note": "(centres unmarked) [Example 110, 1-(4-{5-[(1,3,3-trimethyl-6-azabicyclo[3.2.1]oct-6-yl)methyl]-1,3-oxazol-2-yl}benzyl)-1H-benzimidazole]", "Ki": "> 100"}, {"smiles": "c1ccc2c(c1)ncn2Cc1ccc(-c2ncc(CN3CCCCCC3)o2)cc1", "note": "[Example 111, 1-{4-[5-(azepan-1-ylmethyl)-1,3-oxazol-2-yl]benzyl}-1H-benzimidazole]", "Ki": "> 100"}, {"smiles": "CCN(C)Cc1cnc(-c2ccc(Cn3cnc4ccccc43)cc2)o1", "note": "[Example 112]", "Ki": "> 100"}, {"smiles": "CCN(CC)Cc1cnc(-c2ccc(Cn3cnc4ccccc43)cc2)o1", "note": "[Example 113, N-({2-[4-(1H-benzimidazol-1-ylmethyl)phenyl]-1,3-oxazol-5-yl}methyl)-N-ethylethanamine]", "Ki": "> 100"}, {"smiles": "FC(F)(F)c1nc2ccccc2n1Cc1ccc(-c2nc(CN3CCCC3)co2)cc1", "note": "[Example 114]", "Ki": "≤ 10"}, {"smiles": "c1ccc(-c2nc3ccccc3n2Cc2ccc(-c3nc(CN4CCCC4)co3)cc2)cc1", "note": "[Example 115, 2-phenyl-1-{4-[4-(pyrrolidin-1-ylmethyl)-1,3-oxazol-2-yl]benzyl}-1H-benzimidazole]", "Ki": "≤ 10"}, {"smiles": "C[C@@H]1CCCN1Cc1coc(-c2ccc(Cn3c(C(F)(F)F)nc4ccccc43)cc2)n1", "note": "[Example 116, 1-[4-(4-{[(2R)-2-methylpyrrolidin-1-yl]methyl}-1,3-oxazol-2-yl)benzyl]-2-(trifluoromethyl)-1H-benzimidazole]", "Ki": "10.1 to 25"}, {"smiles": "C[C@H]1CCCN1Cc1coc(-c2ccc(Cn3c(-c4ccccc4)nc4ccccc43)cc2)n1", "note": "[Example 117, 1-[4-(4-{[(2S)-2-methylpyrrolidin-1-yl]methyl}-1,3-oxazol-2-yl)benzyl]-2-phenyl-1H-benzimidazole]", "Ki": "≤ 10"}, {"smiles": "C[C@H]1CCCN1Cc1coc(-c2ccc(Cn3c(C(F)(F)F)nc4ccccc43)cc2)n1", "note": "[Example 118, 1-[4-(4-{[(2S)-2-methylpyrrolidin-1-yl]methyl}-1,3-oxazol-2-yl)benzyl]-2-(trifluoromethyl)-1H-benzimidazole]", "Ki": "10.1 to 25"}]}]}
